The values that follow come from patent publication US20110039721A1, “METHOD FOR PREDICTION ABOUT CARCINOGENICITY OF SUBSTANCE IN RODENT” (Chemicals Evaluation and Research Institute, priority 2007, published 2011).

One data set relates to liver. The note with it: in vivo; cited from earlier work.
In a further data set the test system is rodent. The note with it: in vivo; cited from earlier work.
Data set [1] concerns mRNA expressed from the genes (A) to (D) in rat liver. The data set is described as follows: Behavior of genes (mRNA expression level, oligo-DNA microarray) in rat liver after 28-day oral administration. Type of data set: in vivo. The gist of the method: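 Rat liver RNA after 28 days of daily gavage dosing (male F344, 5 weeks old, four per group). A change reaching 1.5-fold, or 1/1.5, against solvent control scores as significant; opposite direction versus another carcinogen scores as not significant.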

Where [2] appears, read: gene group (A), Unigene No. Rn.167075.
The mark [3] stands for this setting: gene group (C), Unigene No. Rn.120914.

Structures are written as SMILES.

Consider `O=[N+]([O-])c1cccc2ccccc12` [TS083, 1-Nitronaphthalene], for which the Liver carcinogenicity entry in the data set on liver is “Cr−”. In addition, the Carcinogenicity entry in the data set with rodent is reported as “C−”. In addition, the “Behavior of gene caused by administration of chemical substance, Gene No. 4846” value in data set [1] (gene group (A), Unigene No. Rn.144554) is “−”. Moreover, in data set [1] (setting [2]), the “Behavior of gene caused by administration of chemical substance, Gene No. 2026” value was “+” and the “Behavior of gene caused by administration of chemical substance, Gene No. 4218” value was “−”. In addition, the “Behavior of gene caused by administration of chemical substance, Gene No. 6182” value in data set [1] (gene group (A), Unigene No. Rn.5834) is reported as “−”. The “Behavior of gene caused by administration of chemical substance, Gene No. 5600” value in data set [1] (gene group (A), Unigene No. Rn.9836) was “−”. For the same molecule, the “Behavior of gene caused by administration of chemical substance, Gene No. 1494” value in data set [1] (gene group (B), Unigene No. Rn.1430) was “+”. Besides, in data set [1] (gene group (B), Unigene No. Rn.19329), the “Behavior of gene caused by administration of chemical substance, Gene No. 2045” value is “−”. The “Behavior of gene caused by administration of chemical substance, Gene No. 2203” value in data set [1] (gene group (B), Unigene No. Rn.21240) is on record as “−”. Moreover, the “Behavior of gene caused by administration of chemical substance, Gene No. 533” value in data set [1] (gene group (C), Unigene No. Rn.106184) is “+”. Moreover, in data set [1] (gene group (C), Unigene No. Rn.108075), the “Behavior of gene caused by administration of chemical substance, Gene No. 725” value was “+”. Moreover, the “Behavior of gene caused by administration of chemical substance, Gene No. 1163” value in data set [1] (gene group (C), Unigene No. Rn.11766) is on record as “−”. Further, the “Behavior of gene caused by administration of chemical substance, Gene No. 4973” value in data set [1] (gene group (C), Unigene No. Rn.118529) was “+”. Moreover, the “Behavior of gene caused by administration of chemical substance, Gene No. 4095” value in data set [1] (gene group (C), Unigene No. Rn.119024) is listed as “+”. Also, in data set [1] (setting [3]), the “Behavior of gene caused by administration of chemical substance, Gene No. 1334” value is “+” and the “Behavior of gene caused by administration of chemical substance, Gene No. 6620” value is given as “+”. Moreover, in data set [1] (gene group (C), Unigene No. Rn.123063), the “Behavior of gene caused by administration of chemical substance, Gene No. 6303” value is “+”. The “Behavior of gene caused by administration of chemical substance, Gene No. 5878” value in data set [1] (gene group (C), Unigene No. Rn.143213) is “−”. Further, the “Behavior of gene caused by administration of chemical substance, Gene No. 1131” value in data set [1] (gene group (C), Unigene No. Rn.144946) is “−”. In data set [1] (gene group (C), Unigene No. Rn.14744), the “Behavior of gene caused by administration of chemical substance, Gene No. 1562” value is “+”. Further, in data set [1] (gene group (C), Unigene No. Rn.1647), the “Behavior of gene caused by administration of chemical substance, Gene No. 1741” value is listed as “+”. In data set [1] (gene group (C), Unigene No. Rn.164817), the “Behavior of gene caused by administration of chemical substance, Gene No. 893” value is “+”. Further, the “Behavior of gene caused by administration of chemical substance, Gene No. 6026” value in data set [1] (gene group (C), Unigene No. Rn.167685) was “+”. For the same molecule, the “Behavior of gene caused by administration of chemical substance, Gene No. 154” value in data set [1] (gene group (C), Unigene No. Rn.185941) is on record as “+”. For the same molecule, the “Behavior of gene caused by administration of chemical substance, Gene No. 1993” value in data set [1] (gene group (C), Unigene No. Rn.18728) is on record as “+”. Further, in data set [1] (gene group (C), Unigene No. Rn.201760), the “Behavior of gene caused by administration of chemical substance, Gene No. 813” value was “+”. Also, in data set [1] (gene group (C), Unigene No. Rn.23969), the “Behavior of gene caused by administration of chemical substance, Gene No. 2494” value is listed as “−”. Further, the “Behavior of gene caused by administration of chemical substance, Gene No. 2546” value in data set [1] (gene group (C), Unigene No. Rn.24561) was “+”. For the same molecule, the “Behavior of gene caused by administration of chemical substance, Gene No. 3776” value in data set [1] (gene group (C), Unigene No. Rn.43232) is recorded as “+”. Also, the “Behavior of gene caused by administration of chemical substance, Gene No. 3929” value in data set [1] (gene group (C), Unigene No. Rn.4620) is on record as “+”. For the same molecule, the “Behavior of gene caused by administration of chemical substance, Gene No. 1119” value in data set [1] (gene group (C), Unigene No. Rn.9757) is “+”. The “Behavior of gene caused by administration of chemical substance, Gene No. 6742” value in data set [1] (gene group (C), Unigene No. Rn.9779) was “+”. Besides, in data set [1] (gene group (C), Unigene No. Rn.9862), the “Behavior of gene caused by administration of chemical substance, Gene No. 5634” value was “−”. For the same molecule, the “Behavior of gene caused by administration of chemical substance, Gene No. 5726” value in data set [1] (gene group (D), Unigene No. Rn.9939) is “−”.
As to `O=P(OCCCl)(OCCCl)OCCCl` [TS088, Tris(2-chloroethyl)phosphate], in the data set on liver, the Liver carcinogenicity entry is “Cr−”. Also, the Carcinogenicity entry in the data set on rodent is listed as “C+”. For the same molecule, the “Behavior of gene caused by administration of chemical substance” value in data set [1] (rat, in vivo) is “− and +”.
